In the SangsterLogP compilation:

test: method code SF-AS, from DOI: 10.1248/cpb.39.1736, PMID: 1777927

Row | logP | SMILES
1 | 3.82 | CCCCC=Cc1ccc(O)c(O)c1
2 | 2.07 | COc1ccc(CCNC(=O)/C=C/c2ccc(O)c(O)c2)cc1OC
3 | 2.32 | CCCCCC(O)c1ccc(O)c(O)c1 (stereo not drawn)
4 | 3.37 | CCCCCCNC(=O)C=Cc1ccc(O)c(O)c1
5 | 2.72 | CCCCNC(=O)c1ccc2cc(O)c(O)cc2c1
6 | 3.36 | CCCCCCNC(=O)/C=C/Oc1ccc(O)c(O)c1
7 | 2.96 | CCCCc1ccc(O)c(O)c1
8 | 1.99 | COc1ccc(CNC(=O)C=Cc2ccc(O)c(O)c2)cc1OC
9 | 2.71 | CCCCCCNC(=O)c1ccc(O)c(O)c1
10 | 2.61 | CCCC(=O)C=Cc1ccc(O)c(O)c1
11 | 3.25 | CCc1ccc2cc(O)c(O)cc2c1
12 | 2.48 | O=C(/C=C/c1ccc(O)c(O)c1)NCc1ccccc1
13 | 3.53 | CCCCOC(=O)/C=C/c1ccc(O)c(O)c1
14 | 1.67 | O=C(/C=C/c1ccc(O)c(O)c1)CCCCCO
15 | 2.32 | CC(=O)c1ccc2cc(O)c(O)cc2c1
16 | 2.7 | CCOc1ccc2cc(O)c(O)cc2c1
17 | 2.72 | O=C(/C=C/c1ccc(O)c(O)c1)NCCc1ccccc1
18 | 2.3 | COc1ccc(NC(=O)/C=C/c2ccc(O)c(O)c2)cc1OC
